Measurements reported in patent publication US20050159485A1, “Combinations for the treatment of immunoinflammatory disorders and proliferative skin diseases” (priority 2002, published 2005).

Columns and labels:
[1] = tested on: TNFα secretion from stimulated white blood cells; assay: Secondary screen, TNFα ELISA, white blood cells stimulated using 1 μg/ml LPS; type: cell-based, human
Experimental: (§1) Stock solutions at 1.6 mg/ml of alprostadil, and 4.0 mg/ml of […] (Sigma-Aldrich, St. Louis, Mo.; catalog numbers P5515 and R-2625, respectively) were made in dimethylsulfoxide (DMSO). The alprostadil master plates were made by adding 25 μl of the concentrated stock solution to columns 3, 9, and 15 (rows C through N) of a polypropylene 384-well storage plate that had been pre-filled with 75 μl of anhydrous DMSO. Using a TomTec Quadra Plus liquid handler, the 25 μl of alprostadil stock solution was serially diluted four times into the adjacent columns (columns 4-7, 10-13, 16-19). […] The tretinoin master plates were made by adding 25 μl of the concentrated stock solution to the appropriate wells (row C, columns 3-8; row C, columns 9-14; row C, columns 15-20; row I, columns 3-8; row I, columns 9-14; row I, columns 15-20) of the appropriate master polypropylene 384-well storage plate. These master plates had been pre-filled with 75 μl of anhydrous DMSO. Using the TomTec Quadra Plus liquid handler, the 25 μl was serially diluted four times in the adjacent rows (rows D-G, and J-M). […] Master plates were sealed and stored at −20° C. until ready for use.
This dilution plate was then mixed and a 10 μl aliquot transferred to the final assay plate, which had been pre-filled with 40 μl/well RPM media containing the appropriate stimulant to activate TNFα secretion (see below).
(§2) The compound dilution matrix was assayed using a TNFα ELISA method. Briefly, a […] suspension of diluted human white blood cells contained within each well of a polystyrene 384-well plate (NalgeNunc) was stimulated to secrete TNFα by treatment with a final concentration of 10 ng/ml phorbol 12-myristate 13-acetate (Sigma) and 750 ng/ml ionomycin (Sigma). Various concentrations of each test compound were added at the time of stimulation. After 16-18 hours of incubation at 37° C. in a humidified incubator, the plate was centrifuged and the supernatant transferred to a white opaque polystyrene 384 well plate (NalgeNunc, Maxisorb) coated with an anti-TNFα antibody (PharMingen, #18631D). After a two-hour incubation, the plate was washed (Tecan PowerWasher 384) with phosphate buffered saline (PBS) containing 0.1% Tween 20 (polyoxyethylene sorbitan monolaurate) and incubated for an additional one hour with another anti-TNFα antibody that was biotin labeled (PharMingen, 18642D) and horseradish peroxidase (HRP) coupled to strepavidin (PharMingen, #13047E).). After the plate was washed with 0.1% Tween 20/PBS, an HRP-luminescent substrate was added to each well and light intensity measured using a LJL Analyst plate luminometer. Sets of control wells contained a serial dilution of Cyclosporin A (Sigma) starting at a final concentration of 0.5 μg/ml.
In this experiment, white blood cells were stimulated using 1 μg/ml LPS.

[2] = tested on: TNFα secretion from stimulated white blood cells; assay: TNFα ELISA, white blood cells stimulated with phorbol 12-myristate 13-acetate and ionomycin; type: cell-based, human; design: inhibition of TNFα secretion: dose or concentration left out as unconfirmed; conditions: PMA/ionomycin
Experimental: as §1
The final alprostadil/tretinoin combination plates were generated by transferring 1 μl from each of the alprostadil and tretinoin master plates to a dilution plate containing 100 μl of media (RPMI; Gibco BRL, #11875-085), 10% Fetal Bovine Serum (Gibco BRL, #25140-097), 2% Penicillin/Streptomycin (Gibco BRL, #15140-122)) using the TomTec Quadra Plus liquid handler. This dilution plate was then mixed and a 10 μl aliquot transferred to the final assay plate, which had been pre-filled with 40 μl/well RPM media containing the appropriate stimulant to activate TNFα secretion (see below).
as §2
The combination of 0.052 μM tretinoin and 0.004 μM alprostadil was able to suppress TNFα secretion by 42%. […] Maximal tretinoin efficacy (−36% TNFα suppression) is therefore maintained while reducing the concentration of total drug species by greater than 90% (0.052 μM tretionoin+0.004 μM alprostadil compared to 0.832 μM tretinoin alone).

[3] = Homo sapiens, Alprostadil 0.004 μM alone
[4] = Homo sapiens, Alprostadil 0.018 μM alone
[5] = Homo sapiens, Alprostadil 0.071 μM alone
[6] = Homo sapiens, Tretinoin 0.052 μM alone
[7] = Homo sapiens, Tretinoin 0.208 μM alone
[8] = Homo sapiens, Tretinoin 0.832 μM alone
[9] = Homo sapiens, Tretinoin 3.329 μM alone
[10] = Homo sapiens, Tretinoin 13.316 μM alone

CCCCC[C@H](O)/C=C/[C@H]1[C@H](O)CC(=O)[C@@H]1CCCCCCC(=O)O [Alprostadil, (11α, 13E, 15S)-11,15-dihydroxy-9-oxoprost-13-enoic acid]
inhibition at 0.004 µM [1, 3]: 44.6% | inhibition at 0.009 µM ([1]; Homo sapiens, Alprostadil 0.009 μM alone): 49.2% | inhibition at 0.018 µM [1, 4]: 54.8% | inhibition at 0.035 µM ([1]; Homo sapiens, Alprostadil 0.035 μM alone): 57.3% | inhibition at 0.071 µM [1, 5]: 71.5% | inhibition at 0.141 µM ([1]; Homo sapiens, Alprostadil 0.141 μM alone): 74.3% | inhibition at 0.282 µM ([1]; Homo sapiens, Alprostadil 0.282 μM alone): 75.7% | inhibition at 0.564 µM ([1]; Homo sapiens, Alprostadil 0.564 μM alone): 79.5% | inhibition at 1.128 µM ([1]; Homo sapiens, Alprostadil 1.128 μM alone): 81.6% | alprostadil concentration needed alone to attain 64.0% TNFα inhibition ([1]; alprostadil alone): ≥ 0.035 µM | maximal TNFα-inhibitory effect ([1]; alprostadil alone, concentration of at least 1.128 μM): 82% | inhibition at 0.004 µM [2, 3]: 33.3% | inhibition at 0.018 µM [2, 4]: 39.8% | inhibition at 0.071 µM [2, 5]: 50.5% | inhibition at 0.283 µM ([2]; Homo sapiens, Alprostadil 0.283 μM alone): 53.8% | inhibition at 1.13 µM ([2]; Homo sapiens, Alprostadil 1.130 μM alone): 56.8% | inhibition of TNFα secretion ([2]; alprostadil alone): 57%

CC1=C(/C=C/C(C)=C/C=C/C(C)=C/C(=O)O)C(C)(C)CCC1 [Tretinoin, 3,7-dimethyl-9-(2,6,6-trimethylcyclohex-1-enyl)nona-2,4,6,8-all-trans-tetraenoic acid]
inhibition at 0.052 µM [1, 6]: 32.7% | inhibition at 0.104 µM ([1]; Homo sapiens, Tretinoin 0.104 μM alone): 35.1% | inhibition at 0.208 µM [1, 7]: 32.5% | inhibition at 0.416 µM ([1]; Homo sapiens, Tretinoin 0.416 μM alone): 32.7% | inhibition at 0.832 µM [1, 8]: 38.4% | inhibition at 1.664 µM ([1]; Homo sapiens, Tretinoin 1.664 μM alone): 37.6% | inhibition at 3.329 µM [1, 9]: 44.1% | inhibition at 6.658 µM ([1]; Homo sapiens, Tretinoin 6.658 μM alone): 48.7% | inhibition at 13.316 µM [1, 10]: 52.1% | TNFα inhibition ([1]; tretinoin alone, concentrations from 6.7-13.3 μM): approximately 50% | inhibition at 0.052 µM [2, 6]: 13.8% | inhibition at 0.208 µM [2, 7]: 28.7% | inhibition at 0.832 µM [2, 8]: 34.5% | inhibition at 3.329 µM [2, 9]: 34.1% | inhibition at 13.316 µM [2, 10]: 36.2% | maximal inhibition of TNFα secretion ([2]; tretinoin alone, concentrations ranging from 0.83-13.3 μM): 36%
